The record followed here is patent publication US8445674B2, “Heterocyclyl compounds” (Hoffmann-La Roche Inc, priority 2009, dated 2013).

For this experiment, the target named is T1, human chemokine receptor 2 isoform B (Homo sapiens, UniProt P41597).
T1 construct: host or cells: CHOK1-CCR2B-A5 cells (CHO-K1)
T1 sequence (P41597 1-360 isoform P41597-2): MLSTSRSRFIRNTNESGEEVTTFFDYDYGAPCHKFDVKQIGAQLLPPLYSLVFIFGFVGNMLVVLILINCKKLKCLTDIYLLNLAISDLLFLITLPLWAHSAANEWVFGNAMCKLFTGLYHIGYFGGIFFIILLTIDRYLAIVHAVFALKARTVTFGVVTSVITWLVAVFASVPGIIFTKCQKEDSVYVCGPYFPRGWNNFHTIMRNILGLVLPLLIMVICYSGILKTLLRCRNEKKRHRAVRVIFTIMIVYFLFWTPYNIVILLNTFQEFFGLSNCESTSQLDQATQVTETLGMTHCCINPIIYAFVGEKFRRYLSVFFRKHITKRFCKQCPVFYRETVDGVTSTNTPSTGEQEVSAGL
Description: Calcium mobilization assay (FLIPR, antagonist activity against MCP-1). It counts as cell-based. The conditions noted are these: Ca mobilisation assay, CHOK1-CCR2B-A5 cells, inhibition of calcium increase induced by 20 nM MCP-1. The method, boiled down:
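CHOK1 cells stably overexpressing human CCR2B, loaded with 4 μM Fluo-4 for 2 h at 30° C, compounds added and agonist signal read by FLIPR for 80 s. After 20-30 min at 30° C, 20 nM MCP-1 was added and fluorescence read again. IC50 is 50% inhibition of specific calcium increase (max minus basal).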
For orientation: A change in cytosolic calcium serves as a functional read-out for many receptors and channels.

Take `C[C@H]1C(=O)N([C@@H](CCC(=O)N2CCC3(CC3)[C@H](O)C2)C(N)=O)CCN1C(=O)Nc1ccc(C(F)(F)F)c(Cl)c1` [Example 141, (S)-4-[(S)-1-Carbamoyl-4-((S)-4-hydroxy-6-aza-spiro[2.5]oct-6-yl)-4-oxo-butyl]-2-methyl-3-oxo-piperazine-1-carboxylic acid (3-chloro-4-trifluoromethyl-phenyl)-amide]: the concentration for half-maximal inhibition (IC50) worked out at 500 nM.
`CNC(=O)[C@H](CCC(=O)N1CCC2(CC2)[C@H](O)C1)N1CCN(C(=O)Nc2ccc(C(F)(F)F)c(Cl)c2)[C@@H](C)C1=O` [Example 142, (S)-4-[(S)-4-((S)-4-Hydroxy-6-aza-spiro[2.5]oct-6-yl)-1-methylcarbamoyl-4-oxo-butyl]-2-methyl-3-oxo-piperazine-1-carboxylic acid (3-chloro-4-trifluoromethyl-phenyl)-amide]: the IC50 turned out to be 1320 nM.
The value for `COC(=O)[C@H](CCC(=O)N1CCC2(CC2)[C@H](O)C1)N1CCN(C(=O)Nc2ccc(C(F)(F)F)c(C(F)(F)F)c2)[C@@H](C)C1=O` [Example 143, (S)-2-[(S)-4-(3,4-Bis-trifluoromethyl-phenylcarbamoyl)-3-methyl-2-oxo-piperazin-1-yl]-5-((S)-4-hydroxy-6-aza-spiro[2.5]oct-6-yl)-5-oxo-pentanoic acid methyl ester] was 337 nM; that for `C[C@H]1C(=O)N([C@H](CO)CCC(=O)N2CCC3(CC3)[C@H](O)C2)CCN1C(=O)Nc1ccc(C(F)(F)F)c(C(F)(F)F)c1` [Example 144, (S)-4-[(S)-4-((S)-4-Hydroxy-6-aza-spiro[2.5]oct-6-yl)-1-hydroxymethyl-4-oxo-butyl]-2-methyl-3-oxo-piperazine-1-carboxylic acid (3,4-bis-trifluoromethyl-phenyl)-amide] was 4.5 nM.
The value for `COC(=O)[C@@H](CCC(=O)N1CCC2(CC2)[C@H](O)C1)N1CCN(C(=O)Nc2ccc(C(F)(F)F)c(Cl)c2)[C@@H](C)C1=O` [Example 145, (R)-2-[(S)-4-(3-Chloro-4-trifluoromethyl-phenylcarbamoyl)-3-methyl-2-oxo-piperazin-1-yl]-5-((S)-4-hydroxy-6-aza-spiro[2.5]oct-6-yl)-5-oxo-pentanoic acid methyl ester] was 6310 nM.
On to `C[C@H]1C(=O)N([C@@H](CO)CCC(=O)N2CCC3(CC3)[C@H](O)C2)CCN1C(=O)Nc1ccc(C(F)(F)F)c(Cl)c1` [Example 146, (S)-4-[(R)-4-((S)-4-Hydroxy-6-aza-spiro[2.5]oct-6-yl)-1-hydroxymethyl-4-oxo-butyl]-2-methyl-3-oxo-piperazine-1-carboxylic acid (3-chloro-4-trifluoromethyl-phenyl)-amide], for which the IC50 was 157 nM.
The value for `C[C@H]1C(=O)N(CCCC(=O)N2CCC3(CC3)[C@H](O)C2)[C@H](C(N)=O)CN1C(=O)Nc1ccc(C(F)(F)F)c(Cl)c1` [Example 147, (3S,6S)—N1-(3-chloro-4-(trifluoromethyl)phenyl)-4-(4-((S)-4-hydroxy-6-azaspiro[2.5]octan-6-yl)-4-oxobutyl)-6-methyl-5-oxopiperazine-1,3-dicarboxamide] was 3.5 nM.
Regarding `C[C@H]1C(=O)N(CCCC(=O)N2CCC3(CC3)[C@H](O)C2)[C@@H](C(N)=O)CN1C(=O)Nc1ccc(C(F)(F)F)c(Cl)c1` [Example 148, (3R,6S)—N1-(3-chloro-4-(trifluoromethyl)phenyl)-4-(4-((S)-4-hydroxy-6-azaspiro[2.5]octan-6-yl)-4-oxobutyl)-6-methyl-5-oxopiperazine-1,3-dicarboxamide], the IC50 is 30.5 nM.
Then `C[C@H]1C(=O)N(CCCC(=O)N2CCC3(CC3)[C@H](O)C2)[C@H](C(N)=O)CN1C(=O)Nc1ccc(C(F)(F)F)c(C(F)(F)F)c1` [Example 149, (3S,6S)-4-[4-((S)-4-Hydroxy-6-aza-spiro[2.5]oct-6-yl)-4-oxo-butyl]-6-methyl-5-oxo-piperazine-1,3-dicarboxylic acid 3-amide 1-[(3,4-bis-trifluoromethyl-phenyl)-amide]], with 2.2 nM; and `C[C@@H]1C(=O)N(CCCC(=O)N2CCC3(CC3)[C@H](O)C2)[C@@H](C(N)=O)CN1C(=O)Nc1ccc(C(F)(F)F)c(Cl)c1` [Example 150, (3R,6R)-4-[4-((S)-4-Hydroxy-6-aza-spiro[2.5]oct-6-yl)-4-oxo-butyl]-6-methyl-5-oxo-piperazine-1,3-dicarboxylic acid 3-amide 1-[(3-chloro-4-trifluoromethyl-phenyl)-amide]], with 18 nM.
Then `C[C@@H]1C(=O)N(CCCC(=O)N2CCC3(CC3)[C@H](O)C2)[C@@H](C(N)=O)CN1C(=O)Nc1ccc(Cl)c(Cl)c1` [Example 151, (3R,6R)-4-[4-((S)-4-Hydroxy-6-aza-spiro[2.5]oct-6-yl)-4-oxo-butyl]-6-methyl-5-oxo-piperazine-1,3-dicarboxylic acid 3-amide 1-[(3,4-dichloro-phenyl)-amide]], with 62.1 nM; and “(S)-4-[4-((S)-4-Hydroxy-6-aza-spiro[2.5]oct-6-yl)-4-oxo-butyl]-2-methyl-3-oxo-piperazine-1-carboxylic acid (3-chloro-phenyl)-amide [Example 39]”, with 965 nM.
The value for “(rac)-2-{4-[(E)-3-(3,4-Dichloro-phenyl)-acryloyl]-7-oxo-[1,4]diazepan-1-yl}-4-hydroxy-N,N-dimethyl-butyramide [Example 4]” was 370 nM.

Broadly, the IC50 is the concentration at which inhibition is half-maximal.
